From patent publication US20140243335A1, “SUBSTITUTED HYDOXAMIC ACIDS AND USES THEREOF” (Millennium Pharmaceuticals, Inc., priority 2010, published 2014)

What follows are molecules tested against T1, purified human HDAC6 (Homo sapiens, UniProt Q9UBN7) (assay: HDAC6 Enzyme Assay). Details: HDAC6 inhibition at a compound concentration of 0.412 μM; read-out: Percent Inhibition at 0.412 μM.
T1 construct: purchased BPS Bioscience 5006
T1 sequence (Q9UBN7 1-1215): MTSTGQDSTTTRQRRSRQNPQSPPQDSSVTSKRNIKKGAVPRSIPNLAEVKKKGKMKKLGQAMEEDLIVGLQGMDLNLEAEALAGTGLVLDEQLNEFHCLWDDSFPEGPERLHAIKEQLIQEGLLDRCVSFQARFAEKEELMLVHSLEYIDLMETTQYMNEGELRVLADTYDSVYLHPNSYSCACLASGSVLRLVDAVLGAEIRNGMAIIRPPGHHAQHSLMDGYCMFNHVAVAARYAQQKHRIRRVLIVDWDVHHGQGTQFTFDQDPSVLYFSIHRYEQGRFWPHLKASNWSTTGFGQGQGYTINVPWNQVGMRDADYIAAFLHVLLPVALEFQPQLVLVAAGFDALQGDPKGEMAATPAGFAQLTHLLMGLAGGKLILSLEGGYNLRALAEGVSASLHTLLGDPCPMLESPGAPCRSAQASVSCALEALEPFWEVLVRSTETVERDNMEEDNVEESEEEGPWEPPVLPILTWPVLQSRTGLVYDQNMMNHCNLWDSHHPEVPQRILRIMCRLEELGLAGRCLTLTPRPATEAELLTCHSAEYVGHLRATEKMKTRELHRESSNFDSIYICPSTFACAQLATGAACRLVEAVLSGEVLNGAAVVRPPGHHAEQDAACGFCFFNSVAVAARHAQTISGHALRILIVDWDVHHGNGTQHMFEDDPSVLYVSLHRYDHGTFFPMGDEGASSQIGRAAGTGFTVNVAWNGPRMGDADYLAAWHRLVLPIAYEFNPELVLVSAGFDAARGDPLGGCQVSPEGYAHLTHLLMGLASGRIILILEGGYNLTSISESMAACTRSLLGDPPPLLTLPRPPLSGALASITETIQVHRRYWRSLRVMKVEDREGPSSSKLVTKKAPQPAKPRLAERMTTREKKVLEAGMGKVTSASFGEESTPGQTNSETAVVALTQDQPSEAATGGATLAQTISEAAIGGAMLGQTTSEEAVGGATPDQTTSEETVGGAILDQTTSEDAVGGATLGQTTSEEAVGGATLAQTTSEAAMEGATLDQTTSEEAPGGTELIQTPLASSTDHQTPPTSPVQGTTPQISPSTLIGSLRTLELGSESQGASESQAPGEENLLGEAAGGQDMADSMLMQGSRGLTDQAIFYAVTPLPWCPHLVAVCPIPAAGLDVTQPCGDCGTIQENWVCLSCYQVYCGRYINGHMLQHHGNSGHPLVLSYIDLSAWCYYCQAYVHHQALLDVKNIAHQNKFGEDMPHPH
Type: biochemical

| SMILES | inhibition at 0.412 µM |
| --- | --- |
| O=C(NO)c1ccc2c(c1)CC(NCc1ccncc1)CC2 (stereo not shown) [Compound I-85, N-hydroxy-7-[(pyridin-4-ylmethyl)amino]-5,6,7,8-tetrahydronaphthalene-2-carboxamide] | 75% |
| COc1ccc(C(=O)NC2CCc3cc(C(=O)NO)ccc3C2)cc1 (stereo not shown) [Compound I-61, N-hydroxy-6-[(4-methoxybenzoyl)amino]-5,6,7,8-tetrahydronaphthalene-2-carboxamide] | 84% |
| O=C(NO)c1ccc2c(c1)C1CCC2N1C(=O)c1ccc(Cl)cc1 (stereo not shown) [Compound I-197, 9-(4-chlorobenzoyl)-N-hydroxy-1,2,3,4-tetrahydro-1,4-epiminonaphthalene-6-carboxamide] | 55% |
| CC(C)(C)c1ccc(C(=O)N2C3CCC2c2cc(C(=O)NO)ccc23)cc1 (stereo not shown) [Compound I-200, 9-(4-tert-butylbenzoyl)-N-hydroxy-1,2,3,4-tetrahydro-1,4-epiminonaphthalene-6-carboxamide] | 67% |
| O=C(NO)c1ccc2c(c1)CCC(NC(=O)c1ccc3occc3c1)C2 (stereo not shown) [Compound I-54, N-{6-[(hydroxyamino)carbonyl]-1,2,3,4-tetrahydronaphthalen-2-yl}-1-benzofuran-5-carboxamide] | 87% |
| O=C(NO)c1ccc2c(c1)C1CCC2N1C(=O)c1cc2ccccc2o1 (stereo not shown) [Compound I-202, 9-(1-benzofuran-2-ylcarbonyl)-N-hydroxy-1,2,3,4-tetrahydro-1,4-epiminonaphthalene-6-carboxamide] | 19% |
| O=C(NO)c1ccc2c(c1)CCCC2NC(=O)C12CC3CC(CC(C3)C1)C2 (stereo not shown) [Compound I-21, N-{6-[(hydroxyamino)carbonyl]-1,2,3,4-tetrahydronaphthalen-1-yl}adamantane-1-carboxamide] | 20% |
| CC(C)(C)C(=O)Nc1cc(OC2CCc3cc(C(=O)NO)ccc3C2)ccn1 (stereo not shown) [Compound I-150, 6-({2-[(2,2-dimethylpropanoyl)amino]pyridin-4-yl}oxy)-N-hydroxy-5,6,7,8-tetrahydronaphthalene-2-carboxamide] | 86% |
| O=C(NO)c1ccc2c(c1)CCC(NC(=O)C1CCCCC1)C2 (stereo not shown) [Compound I-49, 6-[(cyclohexylcarbonyl)amino]-N-hydroxy-5,6,7,8-tetrahydronaphthalene-2-carboxamide] | 56% |
| CCN1CCC(C)(C(=O)Nc2cc(OC3CCc4cc(C(=O)NO)ccc4C3)ccn2)CC1 (stereo not shown) [Compound I-222, 1-ethyl-N-[4-({6-[(hydroxyamino)carbonyl]-1,2,3,4-tetrahydronaphthalen-2-yl}oxy)pyridin-2-yl]-4-methylpiperidine-4-carboxamide] | 91% |
| O=C(NO)c1ccc2c(c1)CCCC2 [Compound I-66, N-hydroxy-5,6,7,8-tetrahydronaphthalene-2-carboxamide] | 49% |
| Cc1cc(C(=O)NC2CCc3cc(C(=O)NO)ccc3C2)c(C)o1 (stereo not shown) [Compound I-50, N-{6-[(hydroxyamino)carbonyl]-1,2,3,4-tetrahydronaphthalen-2-yl}-2,5-dimethyl-3-furamide] | 70% |
| O=C(NO)c1ccc2c(c1)CCC(c1ccncc1)C2 (stereo not shown) [Compound I-99, N-hydroxy-6-pyridin-4-yl-5,6,7,8-tetrahydronaphthalene-2-carboxamide] | 77% |
| CN(C)C1CCc2ccc(C(=O)NO)cc2C1 (stereo not shown) [Compound I-80, 7-(dimethylamino)-N-hydroxy-5,6,7,8-tetrahydronaphthalene-2-carboxamide] | 43% |

The remaining lines, values ahead:

| inhibition at 0.412 µM | SMILES |
| --- | --- |
| 60% | O=C(NO)c1ccc2c(c1)CCC[C@@H]2NC(=O)c1cc(-c2ccc(F)cc2)n[nH]1 [Compound I-71, 3-(4-fluorophenyl)-N-{(1S)-6-[(hydroxyamino)carbonyl]-1,2,3,4-tetrahydronaphthalen-1-yl}-1H-pyrazole-5-carboxamide] |
| 55% | CC(C)(C)c1ccc(C(=O)NC2CCCc3cc(C(=O)NO)ccc32)cc1 (stereo not shown) [Compound I-16, 5-[(4-tert-butylbenzoyl)amino]-N-hydroxy-5,6,7,8-tetrahydronaphthalene-2-carboxamide] |
| 26% | Cn1cccc1C(=O)N[C@H]1CCCc2cc(C(=O)NO)ccc21 [Compound I-67, N-{(1S)-6-[(hydroxyamino)carbonyl]-1,2,3,4-tetrahydronaphthalen-1-yl}-1-methyl-1H-pyrrole-2-carboxamide] |
| 19% | O=C(NO)c1ccc2c(c1)CCCC2NC(=O)C1CCCCC1 (stereo not shown) [Compound I-17, 5-[(cyclohexylcarbonyl)amino]-N-hydroxy-5,6,7,8-tetrahydronaphthalene-2-carboxamide] |
| 44% | CC(C)(Oc1ccccc1Cl)C(=O)N[C@H]1CCCc2cc(C(=O)NO)ccc21 [Compound I-69, (5S)-5-{[2-(2-chlorophenoxy)-2-methylpropanoyl]amino}-N-hydroxy-5,6,7,8-tetrahydronaphthalene-2-carboxamide] |
| 70% | O=C(NO)c1ccc2c(c1)CCCC2NC(=O)c1cn2cc(Cl)ccc2n1 (stereo not shown) [Compound I-29, 6-chloro-N-{6-[(hydroxyamino)carbonyl]-1,2,3,4-tetrahydronaphthalen-1-yl}imidazo[1,2-a]pyridine-2-carboxamide] |
| 92% | COc1ccc(C(=O)NC2CCc3ccc(C(=O)NO)cc3C2)cc1 (stereo not shown) [Compound I-77, N-hydroxy-7-[(4-methoxybenzoyl)amino]-5,6,7,8-tetrahydronaphthalene-2-carboxamide] |
| 55% | O=C(NO)c1ccc2c(c1)CCC(c1ccc(Cl)cc1)C2 (stereo not shown) [Compound I-101, 6-(4-chlorophenyl)-N-hydroxy-5,6,7,8-tetrahydronaphthalene-2-carboxamide] |
| 18% | CC(C)(C)C(=O)NC1CCCc2cc(C(=O)NO)ccc21 (stereo not shown) [Compound I-6, 5-[(2,2-dimethylpropanoyl)amino]-N-hydroxy-5,6,7,8-tetrahydronaphthalene-2-carboxamide] |
| 54% | Cc1ccc(-c2cc(C(=O)N[C@H]3CCCc4cc(C(=O)NO)ccc43)[nH]n2)cc1 [Compound I-72, N-{(1S)-6-[(hydroxyamino)carbonyl]-1,2,3,4-tetrahydronaphthalen-1-yl}-3-(4-methylphenyl)-1H-pyrazole-5-carboxamide] |
| 2% | O=C(NO)c1ccc2c(c1)CCCC2NC(=O)c1ccc(-c2ccccc2)cc1 (stereo not shown) [Compound I-34, N-{6-[(hydroxyamino)carbonyl]-1,2,3,4-tetrahydronaphthalen-1-yl}biphenyl-4-carboxamide] |
| 33% | O=C(NO)c1ccc2c(c1)CCCC2NC(=O)c1cccc(C(F)(F)F)c1 (stereo not shown) [Compound I-8, N-hydroxy-5-{[3-(trifluoromethyl)benzoyl]amino}-5,6,7,8-tetrahydronaphthalene-2-carboxamide] |
| 23% | COc1ccc(C(C(=O)NC2CCCc3cc(C(=O)NO)ccc32)c2ccccc2)cc1 (stereo not shown) [Compound I-41, N-hydroxy-5-{[(4-methoxyphenyl)(phenyl)acetyl]amino}-5,6,7,8-tetrahydronaphthalene-2-carboxamide] |
| 69% | O=C(NO)c1ccc2c(c1)CCCC2NC(=O)c1sc2ccccc2c1Cl (stereo not shown) [Compound I-32, 3-chloro-N-{6-[(hydroxyamino)carbonyl]-1,2,3,4-tetrahydronaphthalen-1-yl}-1-benzothiophene-2-carboxamide] |
